Test results reported in BindingDB's records for patent US11192859 (2021).

target: Advanced glycosylation end product-specific receptor (Homo sapiens, UniProt Q15109); experiment: Inhibitory Activity Assay
Description: Table 2-3: Step 1. Add 50 μl anti-DIAPH1 (1:160 dilution in 0.1M NaHCO3 pH 9.6)/well. Incubate overnight at 4° C. Day 2 Step 2. Use the plate washer to aspirate anti-DIAPH11 and wash plates 4× with PBS 100 μl per well per wash. Step 3. Add 180 μl 3% BSA in 1×PBS. Incubate for 1.5 hrs at room temperature Step 4. Use the plate washer to aspirate the blocking solution and wash 5× with PBS 300 μl per well. Step 5. Add 50 μl of DIAPH1 containing lysate (85 μg) and incubate at RT for 3 hours. Step 6. Aspirate the lysate and wash the plate 5×(100 μl) on the plate washer. Step 7. Add 25 μl PBS to the wells. Step 8. Add 0.5 μL compound per well. Step 9. Add 24.5 μL GFP RAGE tail (125 nM) into each well for 2 hrs at room temperature. Step 10. Aspirate and wash 5× with PBS (100 μL) on the plate washer. Step 11. Add 100 μl PBS in each well. Step 12. Detection: Read on fluorescence plate reader excitation 435 nm and 485 nm emission

Sequence of Advanced glycosylation end product-specific receptor (Q15109 whole entry): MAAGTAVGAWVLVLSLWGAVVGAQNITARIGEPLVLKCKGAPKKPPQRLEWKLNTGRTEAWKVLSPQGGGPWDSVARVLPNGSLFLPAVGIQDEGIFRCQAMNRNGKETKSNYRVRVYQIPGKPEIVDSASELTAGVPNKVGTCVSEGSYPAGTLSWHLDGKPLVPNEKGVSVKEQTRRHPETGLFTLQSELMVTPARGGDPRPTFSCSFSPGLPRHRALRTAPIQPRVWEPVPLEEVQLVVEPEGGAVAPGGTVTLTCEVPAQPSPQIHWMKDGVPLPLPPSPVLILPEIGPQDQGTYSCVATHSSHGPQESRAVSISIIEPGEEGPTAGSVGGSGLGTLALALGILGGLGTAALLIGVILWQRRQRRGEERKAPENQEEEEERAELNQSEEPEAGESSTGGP

Row | Kd | SMILES
1 | 56 µM | CC(=O)Nc1ccc(-c2cc(C(=O)NCCN(C)C)c3ccccc3n2)cc1 [US11192859, Compound 4]
2 | 99 µM | COCCNC(=O)c1cc(-c2ccc(NC(C)=O)cc2)nc2ccccc12 [US11192859, Compound 6]
3 | 41 µM | CC(=O)Nc1ccc(-c2cc(C(=O)N3CCOCC3)c3ccccc3n2)cc1 [US11192859, Compound 5]
4 | 77 µM | CC(=O)Nc1ccc(-c2cc(C(=O)N3CCCC3)c3ccccc3n2)cc1 [US11192859, Compound 7]
